SMILES strings stand for the structures.

The experiment has as its target T1, human kinase Mps-1 (Homo sapiens, UniProt P33981).
T1 construct: N-terminally GST-tagged human full length recombinant Mps-1 kinase; purchased Invitrogen, Karslruhe, Germany PV4071
T1 sequence (P33981 1-857): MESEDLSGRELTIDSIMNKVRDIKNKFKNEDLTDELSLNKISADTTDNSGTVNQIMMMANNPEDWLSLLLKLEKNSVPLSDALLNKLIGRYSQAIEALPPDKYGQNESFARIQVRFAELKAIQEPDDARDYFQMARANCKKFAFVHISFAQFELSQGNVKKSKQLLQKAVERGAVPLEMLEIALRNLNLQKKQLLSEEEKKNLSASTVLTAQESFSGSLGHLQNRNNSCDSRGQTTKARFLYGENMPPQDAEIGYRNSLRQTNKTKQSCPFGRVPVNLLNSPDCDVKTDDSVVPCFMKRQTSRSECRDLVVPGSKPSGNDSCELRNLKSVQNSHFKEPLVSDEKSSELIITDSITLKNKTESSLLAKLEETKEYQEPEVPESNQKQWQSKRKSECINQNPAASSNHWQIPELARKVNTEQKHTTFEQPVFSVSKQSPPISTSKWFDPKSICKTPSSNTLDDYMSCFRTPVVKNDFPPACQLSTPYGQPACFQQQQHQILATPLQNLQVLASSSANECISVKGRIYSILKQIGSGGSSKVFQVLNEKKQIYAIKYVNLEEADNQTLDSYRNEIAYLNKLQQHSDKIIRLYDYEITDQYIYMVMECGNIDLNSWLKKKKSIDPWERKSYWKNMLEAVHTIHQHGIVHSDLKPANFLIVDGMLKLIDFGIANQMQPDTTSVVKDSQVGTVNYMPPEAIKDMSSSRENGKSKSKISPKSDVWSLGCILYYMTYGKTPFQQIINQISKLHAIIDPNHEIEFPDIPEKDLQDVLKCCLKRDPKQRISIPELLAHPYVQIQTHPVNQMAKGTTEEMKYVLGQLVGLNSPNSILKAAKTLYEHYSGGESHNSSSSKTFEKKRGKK
The experiment is described as follows: Mps-1 kinase assay (HTRF). In kind it is biochemical. Conditions: lowATP; mean; read-out: Mps1 lowATP mean IC50. In a few lines: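 HTRF readout: EDTA-stopped reactions incubated 1 h with europium anti-phospho(Ser/Thr) antibody and streptavidin-XLent, emission ratio 665/620 nm after 350 nm excitation. Kinase step: compound pre-bound 15 min to ~1 nM GST-Mps-1, then 60 min at 22 °C with ATP and biotin-peptide substrate; inhibition scaled between no-inhibitor (0%) and no-enzyme (100%) controls.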
In general terms: Time-resolved FRET reads energy transfer from a long-lived donor to a nearby acceptor.
In general, IC50 refers to the concentration needed to halve the response being measured. As for `CCNc1nc2ccc(F)cc2n2c(-c3ccc(C(=O)NC4CC4)cc3)cnc12` [Example 2-49, N-cyclopropyl-4-[4-(ethylamino)-8-fluoroimidazo[1,2-a]quinoxalin-1-yl]benzamide], the IC50 stood at 0.0876 µM.

In the case of `O=C(NC1CC1)c1ccc(-c2cnc3c(NCCCO)nc4ccc(F)cc4n23)cc1` [Example 2-50, N-cyclopropyl-4-{8-fluoro-4-[(3-hydroxypropyl)amino]imidazo[1,2-a]quinoxalin-1-yl}benzamide], the IC50 was 0.154 µM.

Take `CCCCNc1nc2ccc(F)cc2n2c(-c3ccc(C(=O)NC4CC4)cc3)cnc12` [Example 2-51, 4-[4-(butylamino)-8-fluoroimidazo[1,2-a]quinoxalin-1-yl]-N-cyclopropylbenzamide]: the IC50 came out at 0.0392 µM.

In the case of `O=C(NC1CC1)c1ccc(-c2cnc3c(NCC4CC4)nc4ccc(F)cc4n23)cc1` [Example 2-52, N-cyclopropyl-4-{4-[(cyclopropylmethyl)amino]-8-fluoroimidazo[1,2-a]quinoxalin-1-yl}benzamide], the IC50 was 0.0482 µM.

`O=C(NC1CC1)c1ccc(-c2cnc3c(NCc4ccccn4)nc4ccc(F)cc4n23)cc1` [Example 2-53, N-cyclopropyl-4-{8-fluoro-4-[(pyridin-2-ylmethyl)amino]imidazo[1,2-a]quinoxalin-1-yl}benzamide]: the half-inhibitory concentration (IC50) was found to be 1.05 µM.

In the case of `O=C(NC1CC1)c1ccc(-c2cnc3c(NCc4cccnc4)nc4ccc(F)cc4n23)cc1` [Example 2-54, N-cyclopropyl-4-{8-fluoro-4-[(pyridin-3-ylmethyl)amino]imidazo[1,2-a]quinoxalin-1-yl}benzamide], the IC50 worked out at 0.0985 µM.

With `CC(C)CNc1nc2ccc(F)cc2n2c(-c3ccc(C(=O)NC4CC4)cc3)cnc12` [Example 2-55, N-cyclopropyl-4-{8-fluoro-4-[(2-methylpropyl)amino]imidazo[1,2-a]quinoxalin-1-yl}benzamide], the IC50 was 0.0283 µM.

Regarding `NC(=O)CCNc1nc2ccc(F)cc2n2c(-c3ccc(C(=O)NC4CC4)cc3)cnc12` [Example 2-56, 4-{4-[(3-amino-3-oxopropyl)amino]-8-fluoroimidazo[1,2-a]quinoxalin-1-yl}-N-cyclopropylbenzamide], the IC50 was 0.378 µM.

Regarding `COCCCNc1nc2ccc(F)cc2n2c(-c3ccc(C(=O)NC4CC4)cc3)cnc12` [Example 2-57, N-cyclopropyl-4-{8-fluoro-4-[(3-methoxypropyl)amino]imidazo[1,2-a]quinoxalin-1-yl}benzamide], the IC50 worked out at 0.177 µM.

Consider `Cn1cc(CNc2nc3ccc(F)cc3n3c(-c4ccc(C(=O)NC5CC5)cc4)cnc23)cn1` [Example 2-58, N-cyclopropyl-4-(8-fluoro-4-{[(1-methyl-1H-pyrazol-4-yl)methyl]amino}imidazo[1,2-a]quinoxalin-1-yl)benzamide], for which the IC50 amounted to 0.105 µM.

Consider `O=C(NC1CC1)c1ccc(-c2cnc3c(NCC(O)CO)nc4ccc(F)cc4n23)cc1` (stereo not drawn) [Example 2-59, N-cyclopropyl-4-{4-[(2,3-dihydroxypropyl)amino]-8-fluoroimidazo[1,2-a]quinoxalin-1-yl}benzamide], for which the IC50 turned out to be 0.477 µM.

Consider `CNC(=O)Nc1ccc(-c2cnc3c(NCCCN4CCCC4=O)nc4ccc(F)cc4n23)cc1` [Example 2-60, 1-[4-(8-fluoro-4-{[3-(2-oxopyrrolidin-1-yl)propyl]amino}imidazo[1,2-a]quinoxalin-1-yl)phenyl]-3-methylurea], for which the IC50 is 12.8 µM.

With `CNC(=O)Nc1ccc(-c2cnc3c(NCCOC)nc4ccc(F)cc4n23)cc1` [Example 2-61, 1-(4-{8-fluoro-4-[(2-methoxyethyl)amino]imidazo[1,2-a]quinoxalin-1-yl}phenyl)-3-methylurea], the IC50 worked out at 7.22 µM.

As for `CNC(=O)Nc1ccc(-c2cnc3c(NCc4ccccc4F)nc4ccc(F)cc4n23)cc1` [Example 2-62, 1-(4-{8-fluoro-4-[(2-fluorobenzyl)amino]imidazo[1,2-a]quinoxalin-1-yl}phenyl)-3-methylurea], the IC50 was 17.6 µM.

`CNC(=O)Nc1ccc(-c2cnc3c(NCCCCO)nc4ccc(F)cc4n23)cc1` [Example 2-63, 1-(4-{8-fluoro-4-[(4-hydroxybutyl)amino]imidazo[1,2-a]quinoxalin-1-yl}phenyl)-3-methylurea]: the 50% inhibitory concentration (IC50) was determined as 1.63 µM.

For `CNC(=O)Nc1ccc(-c2cnc3c(NCC(F)(F)F)nc4ccc(F)cc4n23)cc1` [Example 2-64, 1-(4-{8-fluoro-4-[(2,2,2-trifluoroethyl)amino]imidazo[1,2-a]quinoxalin-1-yl}phenyl)-3-methylurea], the IC50 worked out at 6.7 µM.

In the case of `CNC(=O)Nc1ccc(-c2cnc3c(NCCCO)nc4ccc(F)cc4n23)cc1` [Example 2-65, 1-(4-{8-fluoro-4-[(3-hydroxypropyl)amino]imidazo[1,2-a]quinoxalin-1-yl}phenyl)-3-methylurea], the IC50 worked out at 5.42 µM.

Regarding `CNC(=O)Nc1ccc(-c2cnc3c(NCCNC(C)=O)nc4ccc(F)cc4n23)cc1` [Example 2-66, N-{2-[(8-fluoro-1-{4-[(methylcarbamoyl)amino]phenyl}imidazo[1,2-a]quinoxalin-4-yl)amino]ethyl}acetamide], the IC50 was determined as 11.8 µM.

As to `CNC(=O)Nc1ccc(-c2cnc3c(NCCCn4ccnc4)nc4ccc(F)cc4n23)cc1` [Example 2-67, 1-[4-(8-fluoro-4-{[3-(1H-imidazol-1-yl)propyl]amino}imidazo[1,2-a]quinoxalin-1-yl)phenyl]-3-methylurea], the IC50 is 3.13 µM.

As for `CNC(=O)Nc1ccc(-c2cnc3c(NCc4cccnc4)nc4ccc(F)cc4n23)cc1` [Example 2-68, 1-(4-{8-fluoro-4-[(pyridin-3-ylmethyl)amino]imidazo[1,2-a]quinoxalin-1-yl}phenyl)-3-methylurea], the IC50 came out at 2.97 µM.

As for `CNC(=O)Nc1ccc(-c2cnc3c(NCc4ccncc4)nc4ccc(F)cc4n23)cc1` [Example 2-69, 1-(4-{8-fluoro-4-[(pyridin-4-ylmethyl)amino]imidazo[1,2-a]quinoxalin-1-yl}phenyl)-3-methylurea], the 50% inhibitory concentration (IC50) stood at 3.7 µM.

Turning to `CNC(=O)Nc1ccc(-c2cnc3c(NCc4ccco4)nc4ccc(F)cc4n23)cc1` [Example 2-70, 1-(4-{8-fluoro-4-[(furan-2-ylmethyl)amino]imidazo[1,2-a]quinoxalin-1-yl}phenyl)-3-methylurea], the IC50 was 5.08 µM.

With `CNC(=O)Nc1ccc(-c2cnc3c(NCCCOC)nc4ccc(F)cc4n23)cc1` [Example 2-71, 1-(4-{8-fluoro-4-[(3-methoxypropyl)amino]imidazo[1,2-a]quinoxalin-1-yl}phenyl)-3-methylurea], the IC50 was determined as 4.95 µM.

In the case of `CNC(=O)Nc1ccc(-c2cnc3c(NCc4cnn(C)c4)nc4ccc(F)cc4n23)cc1` [Example 2-72, 1-[4-(8-fluoro-4-{[(1-methyl-1H-pyrazol-4-yl)methyl]amino}imidazo[1,2-a]quinoxalin-1-yl)phenyl]-3-methylurea], the 50% inhibitory concentration (IC50) is 2.49 µM.

As for `CNC(=O)Nc1ccc(-c2cnc3c(NCCS(N)(=O)=O)nc4ccc(F)cc4n23)cc1` [Example 2-73, 2-[(8-fluoro-1-{4-[(methylcarbamoyl)amino]phenyl}imidazo[1,2-a]quinoxalin-4-yl)amino]ethanesulfonamide], the IC50 was 9.91 µM.

In the case of `CNC(=O)Nc1ccc(-c2cnc3c(NCC(O)CO)nc4ccc(F)cc4n23)cc1` (stereo not drawn) [Example 2-74, 1-(4-{4-[(2,3-dihydroxypropyl)amino]-8-fluoroimidazo[1,2-a]quinoxalin-1-yl}phenyl)-3-methylurea], the IC50 is 10.1 µM.

For the compound `CCCNc1nc2ccc(F)cc2n2c(-c3ccc(C(=O)NC4CC4)c(Cl)c3)cnc12` [Example 2-75, 2-chloro-N-cyclopropyl-4-[8-fluoro-4-(propylamino)imidazo[1,2-a]quinoxalin-1-yl]benzamide], the IC50 came out at 1.08 µM.

Turning to `O=C(NC1CC1)c1ccc(-c2cnc3c(NCCCN4CCOCC4)nc4ccc(F)cc4n23)cc1Cl` [Example 2-76, 2-chloro-N-cyclopropyl-4-(8-fluoro-4-{[3-(morpholin-4-yl)propyl]amino}imidazo[1,2-a]quinoxalin-1-yl)benzamide], the IC50 came to 10.9 µM.

`O=C(NC1CC1)c1ccc(-c2cnc3c(NCCCN4CCCC4=O)nc4ccc(F)cc4n23)cc1Cl` [Example 2-77, 2-chloro-N-cyclopropyl-4-(8-fluoro-4-{[3-(2-oxopyrrolidin-1-yl)propyl]amino}imidazo[1,2-a]quinoxalin-1-yl)benzamide]: the IC50 turned out to be 10.1 µM.

As for `COCCNc1nc2ccc(F)cc2n2c(-c3ccc(C(=O)NC4CC4)c(Cl)c3)cnc12` [Example 2-78, 2-chloro-N-cyclopropyl-4-{8-fluoro-4-[(2-methoxyethyl)amino]imidazo[1,2-a]quinoxalin-1-yl}benzamide], the IC50 stood at 6.7 µM.

The values are drawn from patent US8729082B2, “Substituted imidazoquinoxalines” (Bayer Intellectual Property GmbH, priority 2009, dated 2014).
